Values quoted from earlier work, collected in publication PMC10998826 (EJNMMI Research, 2024).

Conditions: active metabolite of sacubitril; cited from earlier work
Description: Sacubitril (AHU377) is a potent inhibitor of the NEP. The combination of sacubitril and the angiotensin-receptor blocker valsartan (Entresto®) is effective in reducing the risks of death and of hospitalization for heart failure and is approved for this indication in numerous countries. The highest blood plasma concentration of its active metabolite, LBQ657, is measured around two hours after oral intake.

SMILES: C[C@H](C[C@@H](Cc1ccc(-c2ccccc2)cc1)NC(=O)CCC(=O)O)C(=O)O [LBQ657]
- Time of highest blood plasma concentration after oral intake: around two
